ChEMBL document CHEMBL4118236, “Click Chemistry-Based Discovery of [3-Hydroxy-5-(1 H-1,2,3-triazol-4-yl)picolinoyl]glycines as Orally Active Hypoxia-Inducing Factor Prolyl Hydroxylase Inhibitors with Favorable Safety Profiles for the Treatment of Anemia” (J Med Chem, 2018)
≈ marks a conversion by molar mass, not a printed value.

Experiments:
L02 = test: Cytotoxicity against human L02 cells assessed as reduction in cell viability at 10 to 100 uM after 72 hrs by MTT assay; type: cell-based; conditions: l02, 72 h
Hep 3B2 = test: Cytotoxicity against human Hep3B cells assessed as reduction in cell viability at 10 to 100 uM after 72 hrs by MTT assay; type: cell-based; conditions: hep 3b2, 72 h
HEK293 = test: Cytotoxicity against HEK293 cells assessed as reduction in cell viability at 10 to 100 uM after 72 hrs by MTT assay; type: cell-based; conditions: human, hek293, 72 h
HUVEC = test: Cytotoxicity against HUVEC assessed as reduction in cell viability at 10 to 100 uM after 72 hrs by MTT assay; type: cell-based; conditions: human
[1] = Dissociation constant, pKa of the compound by potentiometric titration method; type: physicochemical
[2] = Lipophilicity, log D of the compound at pH 7.4 by potentiometric titration method; type: physicochemical; conditions: buffer
[3] = Intrinsic aqueous solubility of the compound at pH 7.4 by potentiometric titration method; type: physicochemical; conditions: buffer
[4] = Effective permeability of the compound at pH 7.4 by PAMPA; type: ADME; conditions: read-out: Peff
[5] = Tmax in Sprague-Dawley rat at 10 mg/kg, po by LC-MS/MS; type: ADME, organism-based; conditions: in vivo
[6] = Cmax in Sprague-Dawley rat at 10 mg/kg, po by LC-MS/MS; type: ADME, organism-based; design: dose 10 mg/kg, route oral; conditions: in vivo
Rattus norvegicus [7] = test: AUC (0 to t) in Sprague-Dawley rat at 10 mg/kg, po by LC-MS/MS; type: ADME, organism-based; conditions: in vivo
Rattus norvegicus [8] = test: AUC (0 to infinity) in Sprague-Dawley rat at 10 mg/kg, po by LC-MS/MS; type: ADME, organism-based; design: dose 10 mg/kg, time infinity, route oral; conditions: in vivo
[9] = Half life in Sprague-Dawley rat at 10 mg/kg, po by LC-MS/MS; type: ADME, organism-based; conditions: in vivo
[10] = Clearance in Sprague-Dawley rat at 10 mg/kg, po by LC-MS/MS; type: ADME, organism-based; conditions: in vivo
Rattus norvegicus [11] = test: Apparent volume of distribution in Sprague-Dawley rat at 10 mg/kg, po by LC-MS/MS; type: ADME, organism-based; conditions: in vivo
[12] = MRT (0 to infinity) in Sprague-Dawley rat at 10 mg/kg, po by LC-MS/MS; type: ADME, organism-based; conditions: in vivo
[13] = Oral bioavailability in Sprague-Dawley rat at 10 mg/kg by LC-MS/MS; type: ADME, organism-based; conditions: in vivo
Rattus norvegicus [14] = test: AUC (0 to t) in Sprague-Dawley rat at 1 mg/kg, iv by LC-MS/MS; type: ADME, organism-based; conditions: in vivo
Rattus norvegicus [15] = test: AUC (0 to infinity) in Sprague-Dawley rat at 1 mg/kg, iv by LC-MS/MS; type: ADME, organism-based; design: dose 1 mg/kg, route intravenous, time infinity; conditions: in vivo
[16] = Half life in Sprague-Dawley rat at 1 mg/kg, iv by LC-MS/MS; type: ADME, organism-based; conditions: in vivo
[17] = Clearance in Sprague-Dawley rat at 1 mg/kg, iv by LC-MS/MS; type: ADME, organism-based; conditions: in vivo
[18] = Apparent volume of distribution in Sprague-Dawley rat at 1 mg/kg, iv by LC-MS/MS; type: ADME, organism-based; conditions: in vivo, read-out: Vz
[19] = MRT (0 to infinity) in Sprague-Dawley rat at 1 mg/kg, iv by LC-MS/MS; type: ADME, organism-based; conditions: in vivo
Mus musculus [20] = test: Upregulation of plasma EPO level in C57BL/6 mouse assessed as EPO level at 50 mg/kg, po after 4 hrs by ELISA; type: functional
Mus musculus [21] = test: Antianemic activity in C57BL/6 mouse cisplatin-induced anemia model assessed as increase in hemoglobin level at 10 mg/kg, po administered every other day for 30 days relative to control; type: functional
Mus musculus [22] = test: Antianemic activity in C57BL/6 mouse cisplatin-induced anemia model assessed as increase in hemoglobin level at 25 mg/kg, po administered every other day for 30 days relative to control; type: functional
Mus musculus [23] = test: Acute toxicity in C57BL/6 mouse assessed as apparent signs of toxicity at 25 to 200 mg/kg, po administered every other day for 14 days; type: organism-based; conditions: in vivo, 336 h
Mus musculus [24] = test: Acute toxicity in C57BL/6 mouse assessed as behavioral abnormality at 25 to 200 mg/kg, po administered every other day for 14 days; type: organism-based; conditions: in vivo, 336 h
Mus musculus [25] = test: Acute toxicity in C57BL/6 mouse assessed as effect on growth at 25 to 200 mg/kg, po administered every other day for 14 days; type: organism-based; conditions: in vivo, 336 h
Mus musculus [26] = test: Acute toxicity in C57BL/6 mouse assessed as increase in body weight at 25 to 200 mg/kg, po administered every other day for 14 days measured during compound dosing; type: organism-based; conditions: in vivo, 336 h
Mus musculus [27] = test: Acute toxicity in C57BL/6 mouse assessed as effect on food intake at 25 to 200 mg/kg, po administered every other day for 14 days measured during compound dosing; type: organism-based; conditions: in vivo, 336 h
Mus musculus [28] = test: Acute toxicity in C57BL/6 mouse assessed as change in heart to body weight ratio at 25 to 200 mg/kg, po administered every other day for 14 days measured on day 14 post last dose; type: organism-based; conditions: in vivo, 336 h
Mus musculus [29] = test: Acute toxicity in C57BL/6 mouse assessed as change in liver to body weight ratio at 25 to 200 mg/kg, po administered every other day for 14 days measured on day 14 post last dose; type: organism-based; conditions: in vivo, 336 h
Mus musculus [30] = test: Acute toxicity in C57BL/6 mouse assessed as change in spleen to body weight ratio at 25 to 200 mg/kg, po administered every other day for 14 days measured on day 14 post last dose; type: organism-based; conditions: in vivo, 336 h
Mus musculus [31] = test: Acute toxicity in C57BL/6 mouse assessed as change in lungs to body weight ratio at 25 to 200 mg/kg, po administered every other day for 14 days measured on day 14 post last dose; type: organism-based; conditions: in vivo, 336 h
Mus musculus [32] = test: Acute toxicity in C57BL/6 mouse assessed as change in kidney to body weight ratio at 25 to 200 mg/kg, po administered every other day for 14 days measured on day 14 post last dose; type: organism-based; conditions: in vivo, 336 h
Mus musculus [33] = test: Cardiotoxicity in C57BL/6 mouse at 25 to 200 mg/kg, po administered every other day for 14 days measured on day 14 post last dose by H and E staining based assay; type: toxicity, organism-based; conditions: in vivo, 336 h
Mus musculus [34] = test: Hepatotoxicity in C57BL/6 mouse at 25 to 200 mg/kg, po administered every other day for 14 days measured on day 14 post last dose by H and E staining based assay; type: toxicity, organism-based; conditions: in vivo, 336 h
Mus musculus [35] = test: Toxicity in C57BL/6 mouse assessed as damage in spleen at 25 to 200 mg/kg, po administered every other day for 14 days measured on day 14 post last dose by H and E staining based assay; type: organism-based; conditions: in vivo, 336 h
Mus musculus [36] = test: Toxicity in C57BL/6 mouse assessed as damage in lungs at 25 to 200 mg/kg, po administered every other day for 14 days measured on day 14 post last dose by H and E staining based assay; type: organism-based; conditions: in vivo, 336 h
Mus musculus [37] = test: Nephrotoxicity in C57BL/6 mouse at 25 to 200 mg/kg, po administered every other day for 14 days measured on day 14 post last dose by H and E staining based assay; type: toxicity, organism-based; conditions: in vivo, 336 h
[38] = Therapeutic index, ratio of compound effect for toxicity in C57BL/6 mouse to compound effect for upregulation of plasma EPO level in C57BL/6 mouse; type: organism-based; conditions: read-out: TI
Egl nine homolog 1 [39] = target: T1, Egl nine homolog 1 (Homo sapiens, UniProt Q9GZT9)
Egl nine homolog 1 [40] = target: T1, Egl nine homolog 1; remark: listed apart in the source

T1 sequence (Q9GZT9 whole entry): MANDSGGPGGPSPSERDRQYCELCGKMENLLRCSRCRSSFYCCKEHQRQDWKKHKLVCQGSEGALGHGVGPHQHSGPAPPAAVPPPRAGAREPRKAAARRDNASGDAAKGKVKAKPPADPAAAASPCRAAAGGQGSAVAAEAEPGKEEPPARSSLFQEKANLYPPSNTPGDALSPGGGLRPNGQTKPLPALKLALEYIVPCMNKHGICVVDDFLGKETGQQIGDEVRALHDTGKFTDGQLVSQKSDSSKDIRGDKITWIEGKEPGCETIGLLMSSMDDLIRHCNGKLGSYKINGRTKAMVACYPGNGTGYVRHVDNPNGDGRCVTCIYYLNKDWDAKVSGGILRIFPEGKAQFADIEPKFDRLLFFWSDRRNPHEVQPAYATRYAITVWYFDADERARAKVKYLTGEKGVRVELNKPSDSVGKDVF

O=C(O)CNC(=O)c1ncc(-c2cn(CCCc3ccc(Cl)cc3)nn2)cc1O
Activity (L02): Non-Toxic
Activity (Hep 3B2): Non-Toxic
Activity (HEK293): Non-Toxic
Activity (HUVEC): Non-Toxic
pKa [1]: 3.21
logD [2]: 2.13
solubility [3]: 1180 µg/mL (≈ 2850 µM)
Papp [4]: 11.5 ×10⁻⁶ cm/s
Tmax [5]: 0.917 h
Cmax [6]: 1550 ng/mL
AUCt (Rattus norvegicus [7]): 4990 ng·h/mL
AUC (Rattus norvegicus [8]): 5440 ng·h/mL
half-life [9]: 3.07 h
CL/F [10]: 31.2 mL/min/kg
Vz (Rattus norvegicus [11]): 8.634 L/kg
MRT inf [12]: 3.28 h
bioavailability [13]: 54.1%
AUCt (Rattus norvegicus [14]): 923 ng·h/mL
AUC (Rattus norvegicus [15]): 933 ng·h/mL
half-life [16]: 1.51 h
clearance [17]: 19.4 mL/min/kg
Vd [18]: 2.31 L/kg
MRT inf [19]: 0.623 h
Activity (Mus musculus [20]): 1300 pg/mL
Activity (Mus musculus [21]): 61.9%
Activity (Mus musculus [22]): 96.7%
Activity (Mus musculus [23]): Non-Toxic
Activity (Mus musculus [24]): Non-Toxic
Activity (Mus musculus [25]): Non-Toxic
Activity (Mus musculus [26]): Toxic
Activity (Mus musculus [27]): Non-Toxic
Activity (Mus musculus [28]): Non-Toxic
Activity (Mus musculus [29]): Non-Toxic
Activity (Mus musculus [30]): Non-Toxic
Activity (Mus musculus [31]): Non-Toxic
Activity (Mus musculus [32]): Non-Toxic
Activity (Mus musculus [33]): Non-Toxic
Activity (Mus musculus [34]): Non-Toxic
Activity (Mus musculus [35]): Non-Toxic
Activity (Mus musculus [36]): Non-Toxic
Activity (Mus musculus [37]): Non-Toxic
selectivity ratio [38]: 10
IC50 (Egl nine homolog 1 [39]): 62.2 nM
IC50 (Egl nine homolog 1 [40]): 1310 nM

O=C(O)CNC(=O)c1ncc(-c2cn(CCc3ccc(Cl)cc3)nn2)cc1O
Activity (L02): Non-Toxic
Activity (Hep 3B2): Non-Toxic
Activity (HEK293): Non-Toxic
Activity (HUVEC): Non-Toxic

Cc1nc(C(=O)NCC(=O)O)c(O)c2ccc(Oc3ccccc3)cc12 [ROXADUSTAT]
Activity (L02): Non-Toxic
Activity (Hep 3B2): Non-Toxic
Activity (HEK293): Non-Toxic
Activity (HUVEC): Non-Toxic
pKa [1]: 3.15
logD [2]: 3.77
solubility [3]: 255 µg/mL (≈ 725 µM)
Papp [4]: 12.7 ×10⁻⁶ cm/s
Activity (Mus musculus [21]): 67.7%
Activity (Mus musculus [22]): 92.5%
